Structures are written as SMILES.

The record followed here is patent EP0247507A2, “Composition for transdermal therapeutical systems of high-ceiling diuretics, and process for producing it” (priority 1986, dated 1987).

This assay relates to Ratte. The assay can be described thus: Salidiuretic effect in the rat (urine volume, Na, K, Cl excretion) after percutaneous (TTS) or oral administration. In kind it is in vivo. An excerpt:
Die folgenden Beispiele sollen die Erfindung erläutern. Die Zusammensetzungen wurden durch Mischen der Wirkstoffe mit der Grundlage in einem Rührwerk mit eingebautem Homogenisator erhalten. Als transdermale therapeutische Systeme wurden aus dem deutschen Gebrauchsmuster 84 07 036 bekannte Pflasterpackungen verwendet.

Where [1] appears, read: Furosemid 5 mg/rat p.o. (suspended in 2 % aqueous starch solution), collection period 1 - 5 h, n = 4.
Where [2] appears, read: Furosemid 5 mg/rat p.o. (suspended in 2 % aqueous starch solution), collection period 1 - 24 h, n = 4.
The mark [3] stands for this setting: Furosemid 5 mg/rat p.o. (suspended in 2 % aqueous starch solution), collection period 6 - 24 h, n = 4.
Setting [4] is: Piretanid 20 mg/rat p.o. (suspended in 2 % aqueous starch solution), collection period 1 - 5 h, n = 2.
Setting [5] is: Piretanid 20 mg/rat p.o. (suspended in 2 % aqueous starch solution), collection period 1 - 24 h, n = 2.
The mark [6] stands for this setting: Piretanid 20 mg/rat p.o. (suspended in 2 % aqueous starch solution), collection period 6 - 24 h, n = 2.

`NS(=O)(=O)c1cc(C(=O)O)c(NCc2ccco2)cc1Cl` [Furosemid, 4-Chlor-N-furfuryl-5-sulfamoylanthranilsäure]: under setting [1], the Chlorid came out at 6.10 ± 0.62 mmol/kg, the Kalium was found to be 1.40 ± 0.16 mmol/kg, the Natrium is on record as 4.81 ± 0.75 mmol/kg and the Urin amounted to 47.8 ± 3.5 mL/kg. Under setting [2], this molecule displayed a Chlorid of 6.59 ± 0.61 mmol/kg, a Kalium of 3.88 ± 0.88 mmol/kg, a Natrium of 6.03 ± 0.75 mmol/kg and a Urin of 59.7 ± 6.2 mL/kg. Moreover, under setting [3], the Chlorid stood at 0.49 ± 0.11 mmol/kg, the Kalium amounted to 2.48 ± 0.79 mmol/kg, the Natrium is listed as 1.22 ± 0.21 mmol/kg and the Urin amounted to 11.9 ± 3.6 mL/kg.

Under setting [4], `NS(=O)(=O)c1cc(C(=O)O)cc(N2CCCC2)c1Oc1ccccc1` [Piretanid, 4-Phenoxy-3-(1-pyrrolidinyl)-5-sulfamoylbenzoesäure] had a Chlorid of 8.36 mmol/kg, a Kalium of 1.92 mmol/kg, a Natrium of 7.07 mmol/kg and a Urin of 65.0 mL/kg. Also, under setting [5], the Chlorid is recorded as 11.36 mmol/kg, the Kalium is reported as 11.67 mmol/kg, the Natrium was determined as 11.78 mmol/kg and the Urin was 112.1 mL/kg. Under setting [6], this molecule came in with a Chlorid of 3.00 mmol/kg, a Kalium of 9.75 mmol/kg, a Natrium of 4.71 mmol/kg and a Urin of 47.1 mL/kg.
